From patent US6495594B2, “Biologically active analogs of discodermolide” (Harbor Branch Oceanographic Institution, Inc., priority 2000, dated 2002)
“Also recorded” adds a separate entry of the source.

How the values were obtained:
[1] = test system: purified bovine brain tubulin; test: Tubulin polymerization (optical density at 350 nm); assay type: biochemical; design: key to Purified tubulin polymerization by 10 μM / Purified tubulin polymerization at 10 μM: −: no effect; +/−: minimal or questionable effect; +: weak effect; ++: strong effect; +++: very strong effect equivalent to discodermolide; settings: 10 μM compound; for Purified tubulin polymerization by 10 μM / Maximum polymerization relative to that induced by discodermolide / Purified tubulin polymerization at 10 μM: 1 mg/mL tubulin; for Purified tubulin polymerization by 10 μM / Purified tubulin polymerization at 10 μM: subjective rating; for Purified tubulin polymerization by 10 μM: Table 11; for Purified tubulin polymerization at 10 μM: Table 12
Description: (§1) Compounds were tested at 10 μM with 1 mg/mL tubulin. The temperature was varied during the course of the experiment as follows: the experiment was begun with an initial temperature of 4° C. and held for 1 minute; the temperature was then increased to 35° C. at a rate of 1° C./minute, held at 35° C. for 1 minute, decreased to 4° C. at a rate of 2° C/minute, and finally held at 4° C. for 14 minutes. The curves shown are for compounds: discodermolide (I); 2-desmethyldiscodermolide (II); 19-desaminocarbonyldiscodermolide (III); 2-epidiscodermolide (IV); and 3-deoxy-2A-discodermolide (VI).
as §1, with “C./minute,” for “C/minute,”, “for” for “for compounds:”, “8,21,23-hexahydrodiscodermolide (XII)” for “2-desmethyldiscodermolide (II); 19-desaminocarbonyldiscodermolide (III); 2-epidiscodermolide (IV);”, “7-deoxy-8,21,23-hexahydrodiscodermolide (XIII).” for “3-deoxy-2A-discodermolide (VI).”
Polymerization of purified bovine brain tubulin (Cytoskeleton Inc., Denver, Colo.) was followed by changes in the optical density of tubulin solutions at 350 nm in a Hitachi U-3010 spectrophotometer equipped with a SPR-10 electronic thermostatted cell holder. Stock solutions of tubulin were diluted on ice in G-PEM buffer (1 mM GTP, 80 mM PIPES, 1 mM EGTA, 0.5 mM magnesium chloride; pH 6.8) to a final concentration of 1 mg/mL. The instrument was zeroed on this solution at 4° C. Discodermolide, and its analogs, were then added to the tubulin solution to a final concentration of 10 μM, quickly mixed, and the absorbance monitored over a period of 61 minutes. Within this time the temperature of the thermoelectric cell holder was held at 4° C. for 1 minute, increased to 35° C. at a rate of 1° C./minute, reduced back to 4° C. at a rate of 2° C./minute, and held at 4° C. for an additional 14 minutes.

[2] = test system: A549 human adenocarcinoma; test: In vitro proliferation of A549 cells (MTT); assay type: cell-based; settings: 72 hours exposure; for IC50: value in parentheses
Description: (§2) Discodermolide and discodermolide analogs were analyzed as to their effects on proliferation of A549 human adenocarcinoma and P388 murine leukemia cell lines. P388 cells were obtained from Dr. R. Camalier, National Cancer Institute, Bethesda, MD, and A549 cells were obtained from American Type Culture Collection, Rockville, MD. All cell lines were maintained in tissue culture medium (TCM; Roswell Park Memorial Institute RPMI 1640 supplemented with 100 U/mL penicillin, […], 60 […], 18 mM HEPES, 0.05 mg/mL gentamicin (Life Technologies, Gaithersburg, MD) and 10% fetal bovine serum) and cultured in plastic tissue culture flasks at 37° C. in humidified air containing 5% CO2. Stock cultures of P388 cells were subcultured 1:20 in fresh TCM every 2 to 3 days. Stock cultures of A549 cells were subcultured 1:10 every 3 to 4 days. To assess the antiproliferative effects of agents against the cells, 200 μL cultures (96-well tissue culture plates, Nunc, Denmark) were established at 1 ×10^5 cells/mL in TCM or TCM containing the test agent at 0.03-5.0 μg/mL. After 48-h exposures, P388 cells were enumerated using 3-[4,5-dimethylthiazol-2-yl]-2,5-diphenyltetrazolium bromide (MTT) as described in the literature (M. C. Alley, et al., Cancer Res. 48:589, 1988). A549 cells were enumerated in the same manner after 72 hours exposure. The results were expressed as percent inhibition compared to the negative (no drug) control. Positive drug controls of varying dilutions of 5-fluorouracil and adriamycin (Sigma Chemical Co., St Louis, MO) were included to monitor drug sensitivity of the cell line.
(§3) To quantitate the effects on cell proliferation and resulting IC50 values, 75 μL of warm growth media containing 5 mg/mL MTT is added to each well, cultures returned to the incubator, and left undisturbed for 3 hours. To spectrophotometrically quantitate formation of reduced formazan, plates are centrifuged (500×g, 10 minutes), culture fluids removed by aspiration, and 200 μL of acidified isopropanol (2 mL concentrated HCl /liter isopropanol) added per well. The absorbance of the resulting solutions is measured in a plate reader (TECAN Spectra SLT; TECAN U.S., Research Triangle Park, N.C.) at 570 nm and a 650 nm reference filter. The absorbance of test wells is divided by the absorbance of drug-free wells, and the concentration of agent that results in 50% of the absorbance of untreated cultures (IC50) is determined by linear regression of logit-transformed data (D. J. Finney, Statistical Method in Biological Assay, third ed., pp. 316-348, Charles Griffin Co., London, 1978). A linear relationship between tumor cell number and formazan production has been routinely observed over the range of cell densities observed in these experiments. The two standard drug controls (indicated above) are included in each assay as a check to monitor the drug sensitivity of each of the cell lines and IC50 values are determined for each drug-cell combination.

[3] = test system: P388 murine leukemia cell lines; test: In vitro proliferation of P388 cells (MTT); assay type: cell-based; settings: 48-h exposure; for IC50: value in parentheses
Description: as §2, §3

A549 human lung cells = test: Cell cycle progression by flow cytometry; assay type: cell-based
Description: Cell cycle studies were initiated in order to pinpoint a specific phase within the cell cycle in which discodermolide analogs were exerting their antiproliferative effect. A549 human lung cells were used as cell cycle targets to compare the effects of discodermolide and discodermolide analogs on perturbation of the cell cycle. Cell cycle analyses were performed as follows: A549 cells were incubated at 37° C. in 5% CO2 in air in the presence or absence of varying concentrations of discodermolide or discodermolide analogs for 24 hr. Cells were harvested, fixed in ethanol, washed, and stained with 0.02 mg/mL of propidium iodide (P.I.) together with 0.1 mg/mL of RNAse A. Stained preparations were analyzed on a Coulter EPICS ELITE flow cytometer with 488 nm excitation. Fluorescence measurements and resulting DNA histograms were collected from at least 10,000 P.I. stained cells at an emission wavelength of 690 nm. Raw histogram data was further analyzed using a cell cycle analysis program (Multicycle, Phoenix Flow Systems).

| SMILES | Level of tubulin polymerization induced [1] | Stability of polymerized tubulin when held at 4° C. [1] | Purified tubulin polymerization by 10 μM [1] | IC50 A549 cells [2] [µg/mL] | IC50 [2] [nM] | IC50 P388 cells [3] [µg/mL] | IC50 [3] [nM] | Cell cycle effects (A549 human lung cells; concentration not given) | Maximum polymerization relative to that induced by discodermolide [1] | Purified tubulin polymerization at 10 μM [1] | Cell population accumulated in the G2/M phase (A549 human lung cells; 1000 nM, 24 hour incubation) | Cell cycle effects (A549 human lung cells; concentrations lower than 1000 nM) | Cell cycle effects (100 nM) (A549 human lung cells; 100 nM, 24 hr, A549) |
| --- | --- | --- | --- | --- | --- | --- | --- | --- | --- | --- | --- | --- | --- |
| C=CC=CC(C)C(OC(N)=O)C(C)C(O)C(C)CC(C)=CC(C)C(O)C(C)C=CC(O)CC1OC(=O)CC(O)C1C (stereo not drawn) [2-Desmethyldiscodermolide (II), 2-desmethyldiscodermolide] | almost equivalent to those of the parent compound discodermolide | stable | ++ | 0.07 | 120 | 0.1 | 172 | very strong apoptotic (sub-G1 peak) effects as well as an increase in the percentage of cells residing in the G2/M phase | – | – | – | – | – |
| C=C/C=C\[C@H](C)[C@H](OC(N)=O)[C@@H](C)[C@H](O)[C@@H](C)C/C(C)=C\[C@H](C)[C@@H](O)[C@@H](C)/C=C\[C@@H](O)C[C@@H]1OC(=O)[C@@H](C)[C@@H](O)[C@H]1C [2-Epidiscodermolide (IV), 2-epidiscodermolide] | low levels | relatively stable | ++ | 0.04 | 67 | 0.08 | 134 | Apoptosis and weak G2/M block | 30-50% | – | – | – | – |
| CCCCC(C)C(OC(N)=O)C(C)C(O)C(C)CC(C)=CC(C)C(O)C(C)CCCCC1OC(=O)C(C)C(O)C1C (stereo not drawn) [7-deoxy-8,21,23-hexahydrodiscodermolide] | low levels | relatively stable | – | 0.22 | 377 | 0.18 | 309 | – | 39% | ++ | Approximately 50% | did not produce any cell cycle effects | – |
| CCCCC(C)C(OC(N)=O)C(C)C(O)C(C)CC(C)=CC(C)C(O)C(C)CCC(O)CC1OC(=O)C(C)C(O)C1C (stereo not drawn) [8,21,23-Hexahydrodiscodermolide (XII), 8,21,23-hexahydrodiscodermolide] | strong | relatively stable | – | 0.04 | 67.7 | 0.02 | 33.8 | – | approximately 80% | +++ | – | – | small percent increase in the cells accumulated at the G2/M phase; also recorded: high percentage of apoptosis |
| C=CC=CC(C)C(O)C(C)C(O)C(C)CC(C)=CC(C)C(O)C(C)C=CC(O)CC1OC(=O)C(C)C(O)C1C (stereo not drawn) [19-Desaminocarbonyldiscodermolide (III), 19-desaminocarbonyldiscodermolide] | low levels | relatively stable | + | 0.045 | 74 | 0.07 | 128 | Strong apoptosis; moderate G2/M block | 30-50% | – | – | – | – |
